# In the supplement of paper PMC11208160:
# Assay: recombinant barcode read abundance after kanamycin selection (control-corrected) (log10(CPM+1)); higher = more efficient recombination; sequences stand for … in AGTGCAGAGAAAATCGGCCAGTTTTCTCTGCCTGCAGTCCGCATGCCGT…AGATTTATGCAGCGGACTGCCTTTCTCCCAAAGTGATAAACCGGACAGTATCATGGACCGGTTTTCCCGGTAATCCGTATTTGCAAGGTTGGTTTCACT; site = the 11-nt target
# Summary of the method: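 A promoter, a target, a barcode and the first 104 bridge RNA bases under J23119 made up each oligo. Oligos were Gibson-cloned into a vector bearing the other 73 bp and a T7-inducible recombinase, then co-electroporated into E. coli with a donor plasmid and plated in duplicate on chloramphenicol/ampicillin LB agar (control) or chloramphenicol/ampicillin/kanamycin with 0.1 mM IPTG. Recombination efficiency is the averaged, control-corrected counts per million of recombinant-junction barcodes. Reported values are log10(CPM+1).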
# 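Also: IS621 recombinase and bridge RNA in Escherichia coli cells.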
row,Sequence,recombinant barcode read abundance (log10)
1,CTTTGCCCTTGGGTTCTAACCTGTTGCCT (site CGTTGCCCTAG),0.0892
2,CTTTGCCCTTGGGTTCTAACCTGTTGCCT (site CTTTGCCCTAG),0.687
3,GAAAGGGCTTGGGTTCTAACCTGTTGCCT (site GAAAAGGCTAG),0.183
4,GAAAGGGCTTGGGTTCTAACCTGTTGCCT (site GAAACGGCTAG),0.0842
5,GAAAGGGCTTGGGTTCTAACCTGTTGCCT (site GAAAGGGCTAG),0.566
6,GAAAGGGCTTGGGTTCTAACCTGTTGCCT (site GAAATGGCTAG),0.0705
7,GAAATTCCTTGGGTTCTAACCTGTTGCCT (site GAAAATCCTAG),0.148
8,GAAATTCCTTGGGTTCTAACCTGTTGCCT (site GAAACTCCTAG),0.266
9,GAAATTCCTTGGGTTCTAACCTGTTGCCT (site GAAAGTCCTAG),0.132
10,GAAATTCCTTGGGTTCTAACCTGTTGCCT (site GAAATTCCTAG),0.371
11,GAACCTTCTTGGGTTCTAACCTGTTGCCT (site GAACCTTCTAG),0.695
12,GAACCTTCTTGGGTTCTAACCTGTTGCCT (site GAACGATCTAG),0.0234
13,GAACGACCTTGGGTTCTAACCTGTTGCTT (site GAACGACCTAA),0.613
14,GAACGACCTTGGGTTCTAACCTGTTGCTT (site GAACGACCTCA),0.0114
15,GAACGCTCTTGGGTTCTAACCTGTTGCTT (site GAACGCTCTAA),0.876
16,GAACGCTCTTGGGTTCTAACCTGTTGCTT (site TGTAAGACTCT),0.225
17,GAACGGGCTTGGGTTCTAACCTGTTGCGG (site GAACGGGCTCC),1.33
18,GAACGGGCTTGGGTTCTAACCTGTTGCGG (site GGACGGGCTCT),0.12
19,GAAGCTCCTTGGGTTCTAACCTGTTGCGT (site GAAGCTCCTAC),2.81
20,GAAGCTCCTTGGGTTCTAACCTGTTGCGT (site GAGGCTCCTAC),0.581
21,GAAGTAACTTGGGTTCTAACCTGTTGCCT (site GAAGTAACTAG),1.18
22,GAAGTAACTTGGGTTCTAACCTGTTGCCT (site GACGTAACTAG),0.194

row,Sequence,recombinant barcode read abundance (log10)
1,GAAGTAACTTGGGTTCTAACCTGTTGCCT (site GAGGTAACTAG),0.346
2,GAAGTAACTTGGGTTCTAACCTGTTGCCT (site GATGTAACTAG),0.0965
3,GAATATTCTTGGGTTCTAACCTGTTGCTT (site GAATATTCTAA),0.206
4,GAATATTCTTGGGTTCTAACCTGTTGCTT (site GAATGTTCTAA),0.0342
5,GAATCTACTTGGGTTCTAACCTGTTGCCT (site GAATCTACTAG),0.512
6,GAATCTACTTGGGTTCTAACCTGTTGCCT (site GCATCTACTAG),0.195
7,GAATCTACTTGGGTTCTAACCTGTTGCCT (site GGATCTACTAG),0.896
8,GAATCTACTTGGGTTCTAACCTGTTGCCT (site GTATCTACTAG),0.136
9,GAATCTACTTGGGTTCTAACCTGTTGCTT (site GAATCTACTAA),0.095
10,GAATCTACTTGGGTTCTAACCTGTTGCTT (site GACTCTACTAA),0.0804
11,GAATCTACTTGGGTTCTAACCTGTTGCTT (site GAGTCTACTAA),0.122
12,GAATCTACTTGGGTTCTAACCTGTTGCTT (site GATTCTACTAA),0.00713
13,GAATGGACTTGGGTTCTAACCTGTTGCGA (site CTCATATCTAA),0.0913
14,GAATGGACTTGGGTTCTAACCTGTTGCGA (site GAATGGACTTC),2.45
15,GACAAACCTTGGGTTCTAACCTGTTGCCT (site GACAAACCTAG),0.433
16,GACAAACCTTGGGTTCTAACCTGTTGCCT (site GTCAAACCTAA),0.00743
17,GACACAGCTTGGGTTCTAACCTGTTGCCT (site GAAACAGCTAG),0.145
18,GACACAGCTTGGGTTCTAACCTGTTGCCT (site GACACAGCTAG),1.26
19,GACACAGCTTGGGTTCTAACCTGTTGCCT (site GAGACAGCTAG),0.118
20,GACACAGCTTGGGTTCTAACCTGTTGCCT (site GATACAGCTAG),0.372
21,GACACTTCTTGGGTTCTAACCTGTTGCCT (site GACACTTCTAG),0.133
22,GACACTTCTTGGGTTCTAACCTGTTGCCT (site GTCAATTCTAG),0.0949

row,Sequence,recombinant barcode read abundance (log10)
1,GACATATCTTGGGTTCTAACCTGTTGCTG (site GACATATCTCA),0.403
2,GACATATCTTGGGTTCTAACCTGTTGCTG (site GACATATCTTG),0.165
3,GACCAGCCTTGGGTTCTAACCTGTTGCCT (site GACCAGCCTAA),0.277
4,GACCAGCCTTGGGTTCTAACCTGTTGCCT (site GACCAGCCTAC),0.0691
5,GACCAGCCTTGGGTTCTAACCTGTTGCCT (site GACCAGCCTAG),0.98
6,GACCAGCCTTGGGTTCTAACCTGTTGCCT (site GACCAGCCTAT),0.359
7,GACCAGTCTTGGGTTCTAACCTGTTGCGG (site GACCAGTCTCC),1.97
8,GACCAGTCTTGGGTTCTAACCTGTTGCGG (site GTCCAGGCTCC),0.128
9,GACCGCTCTTGGGTTCTAACCTGTTGCTA (site GACCGCTCTTA),1.2
10,GACCGCTCTTGGGTTCTAACCTGTTGCTA (site GTCAGCTCTTA),0.37
11,GACCGTCCTTGGGTTCTAACCTGTTGCCA (site GACCGTCCTTG),0.761
12,GACCGTCCTTGGGTTCTAACCTGTTGCCA (site GACTGTCCTTC),0.472
13,GACCGTCCTTGGGTTCTAACCTGTTGCTT (site GACCGTCCTAA),1.1
14,GACCGTCCTTGGGTTCTAACCTGTTGCTT (site GACCGTCCTAC),0.447
15,GACCGTCCTTGGGTTCTAACCTGTTGCTT (site GACCGTCCTAG),0.252
16,GACCGTCCTTGGGTTCTAACCTGTTGCTT (site GACCGTCCTAT),1.19
17,GACCGTGCTTGGGTTCTAACCTGTTGCCT (site GACCGAGCTAG),0.0758
18,GACCGTGCTTGGGTTCTAACCTGTTGCCT (site GACCGCGCTAG),0.103
19,GACCGTGCTTGGGTTCTAACCTGTTGCCT (site GACCGGGCTAG),0.268
20,GACCGTGCTTGGGTTCTAACCTGTTGCCT (site GACCGTGCTAG),1.38
21,GACCTACCTTGGGTTCTAACCTGTTGCAG (site GACCTACCTCT),2.18
22,GACCTACCTTGGGTTCTAACCTGTTGCAG (site GACCTCCCTCA),0.136

row,Sequence,recombinant barcode read abundance (log10)
1,GACCTATCTTGGGTTCTAACCTGTTGCCT (site GACCTATCTAG),1.39
2,GACCTATCTTGGGTTCTAACCTGTTGCCT (site TGTGCTACTGT),0.213
3,GACCTCCCTTGGGTTCTAACCTGTTGCTG (site GACCTACCTCT),0.219
4,GACCTCCCTTGGGTTCTAACCTGTTGCTG (site GACCTCCCTCA),2.16
5,GACGCTTCTTGGGTTCTAACCTGTTGCAT (site GACGCAACTAT),1
6,GACGCTTCTTGGGTTCTAACCTGTTGCAT (site GACGCTTCTAT),0.254
7,GACGTAACTTGGGTTCTAACCTGTTGCAG (site AGGAAGGCTTG),0.459
8,GACGTAACTTGGGTTCTAACCTGTTGCAG (site GACGTAACTCT),1.15
9,GACGTAACTTGGGTTCTAACCTGTTGCCT (site GAAGTAACTAG),0.0422
10,GACGTAACTTGGGTTCTAACCTGTTGCCT (site GACGTAACTAG),0.508
11,GACGTAACTTGGGTTCTAACCTGTTGCCT (site GAGGTAACTAG),0.0292
12,GACGTAACTTGGGTTCTAACCTGTTGCCT (site GATGTAACTAG),0.163
13,GACTAGTCTTGGGTTCTAACCTGTTGCAG (site CGGGGCCCTAA),0.156
14,GACTAGTCTTGGGTTCTAACCTGTTGCAG (site GACTAGTCTCT),2.22
15,GACTATCCTTGGGTTCTAACCTGTTGCCG (site ACTATGACTAA),0.0127
16,GACTATCCTTGGGTTCTAACCTGTTGCCG (site GACTATCCTCG),0.739
17,GACTATGCTTGGGTTCTAACCTGTTGCCT (site GACTATGCTAG),0.461
18,GACTATGCTTGGGTTCTAACCTGTTGCCT (site GCCTATGCTAG),0.291
19,GACTATGCTTGGGTTCTAACCTGTTGCCT (site GGCTATGCTAG),0.0633
20,GACTATGCTTGGGTTCTAACCTGTTGCCT (site GTCTATGCTAG),0.00989
